Assay [1] relates to K562 cells. Nature of the assay: Inhibition of KHYG-1 cell cytotoxicity by IL-6, flow cytometry. The class given is cell-based. Particulars: K562, IL-6 100 ng/mL. As for the experimental part: (§1) KHYG-1, RPMI8226, MM1.S and K562 cells were cultured and maintained as described above. Cells were harvested in log phase, washed and re-suspended in pre-warmed appropriate mediums, before adjusting the cell concentration to 1 million/mL. The concentration of target cells was adjusted according to the E:T (effector: target) ratio. 0.5 mL KHYG-1 cells and 0.5 mL target cells were added to one well of a 24-well plate. IL-6 was added to the wells at final concentration of 100 ng/mL. The plates were then placed in a humidified 37° C./5% CO2 incubator for 12 hours (6 or 4 hours for K562 cells). The same mixture of KHYG-1 and target cells at time point 0 hr were used as a control.
(§2) Flow cytometry was used to measure the cytotoxicity of KHYG-1 cells. The co-cultured cells were collected (at different time points), washed and then stained with CD2-APC antibody (2.5 uL/test) first, then stained with AnnexinV-FITC (2.5 uL/test) and SYTOX-Green (0.5 uL/test) using AnnexinV binding buffer. Data were further analyzed using FlowJo 7.6.1 software. CD2-positive and CD2-negative gates were set which represent KHYG-1 cells and target cells, respectively. KHYG-1 cells were 100% positive for CD2, but K562, RPMI8226 and MM1.S cells were CD2-negative. Finally, the percentage of AnnexinV-FITC and SYTOX-Green positive cells (dead cells) in CD2-negative population was analyzed.
(A flow cytometer gives signals particle by particle.)

The subject of assay [2] is MM1.S cells. The description is as above. In kind it is cell-based. Particulars: IL-6 100 ng/mL, E:T 1:1, 12 hr incubation. The protocol:
as §1, §2

The subject of assay [3] is RPMI8226 cells. Described as above. Particulars: RPMI8226, IL-6 100 ng/mL, E:T 1:1, 12 hr incubation. The class given is cell-based. The protocol:
as §1, §2

Assay [4] relates to NKG2A (inhibitory receptor). Description: Receptor expression on KHYG-1 cells after IL-6 stimulation. In kind it is cell-based, human. Particulars: 50 ng/mL IL-6 in the presence of IL-2, 24 hours. The text has this: (§3) Negative control means FMO. APC anti-human NKG2D Antibody (catalog number #320807) was bought from Biolegend. APC anti-human NKG2A Antibody (catalog number FAB1059A) was bought from R&D systems.

For assay [5], the system named is NKG2D (activating receptor). Described as above. In kind it is cell-based, human. The conditions noted are these: 50 ng/mL IL-6 in the presence of IL-2, 24 hours.
Source text: as §3

Assay [6] has as its system PD-L1. Description: Checkpoint ligand expression on MM cells treated with IL-6. In kind it is cell-based, human. The conditions noted are these: 100 ng/mL IL-6, 48 hours. The protocol:
(§4) MM cells in log phase were seeded at 0.5 million/mL in RPMI1640 medium containing 10% FBS. A final concentration of 100 ng/mL IL-6 or same volume of vehicle (PBS) was used to treat MM cells for 48 hours. Then MM cells were harvested, washed, and stained with PD-L1 and PD-L2 antibodies (2.5 uL/test). Flow cytometric data were acquired using a FACS Canto II, and the results were further analyzed by […] 8.0.1 software.

The subject of assay [7] is PD-L2. The description is as above. The class given is cell-based, human. Particulars: 100 ng/mL IL-6, 48 hours. The protocol:
as §4

The test system of assay [8] is p-STAT3, p-SHP1, p-SHP2, p-P44/42. Description: IL-6 / IL-2 signaling in KHYG-1 cells, gel electrophoresis. In kind it is cell-based, human. The text has this: PE labeled mouse anti-human CD126 (IL-6 receptor alpha chain) (Catalog: 551850), PE labeled mouse anti-human CD130 (gp130, IL-6 receptor-associated signal transducer) (Catalog #:555757), PE-labeled Mouse IgG1 k isotype control (Catalog: 555749), APC-labeled mouse anti-human CD2 (Catalog: 560642), FITC-labeled mouse anti-human CD2 (Catalog: 555326), APC-labeled mouse anti-human PD-L1 (Catalog: 563741) and APC-labeled mouse anti-human PD-L2 (Catalog: 557926) were bought from BD Pharmingen. APC-labeled mouse anti-human PD1 antibody (Catalog: 329907) was bought from Biolegend. Phosphor-Stat3(Ser727) mouse mAb (Catalog:9136), Phosphor-Shp-1(Tyr564) rabbit mAb (Catalog; 8849), Phosphor-Shp-2(Tyr580) rabbit mAb (Catalog: 5431), Phospho-p44/42 MAPK (Erk1/2) (Thr202/Tyr204) rabbit mAb (Catalog: 4370) and p44/42 MAPK (Erk1/2) rabbit mAb were bought from Cell Signaling Technology. Phosphor-Stat3(Tyr705) mouse mAb (Catalog: sc-81523) and rabbit anti-human Stat3 polyclonal antibody (Catalog: sc-7179) were bought from Santa Cruz Biotechnology. Mouse anti-beta actin (Catalog: A5441) was bought from SIGMA-ALDRICH. Functional IL-6 blocking antibody (Catalog: 501110) and the related isotype control antibody (Catalog: 400414) were bought from Biolegend.
KHYG-1 cells were cultivated and maintained as mentioned above.

Where [9] appears, read: KHYG-1 cells starved of IL-2 for 6 hours, cytokine alone (IL-2 10 ng/mL or IL-6 100 ng/mL).
Setting [10] is: KHYG-1 cells, IL-6 in the presence of IL-2.

Regarding “IL-6: Recombinant Human IL-6 (Catalog: 200-06) from PEPROTECH”, the “percentage of dead target cells co-cultured with KHYG-1 cells” value in assay [1] (E:T 1:1, 4 hr incubation) was “decreased”; in assay [1] (E:T 1:1, 6 hr incubation) it was “decreased”; in assay [2], “decreased”; in assay [3], “decreased”. Besides, the NKG2A expression entry in assay [4] is recorded as “increasing expression”. In assay [5], the NKG2D expression levels entry is listed as “decreasing expression levels”. The PD-L1 expression entry in assay [6] (MM1.S cells), in assay [6] (NCI-H929 cells), in assay [6] (RPMI8226 cells) and in assay [6] (U266 cells) was “upregulation” in each case. The PD-L2 expression result in assay [7] (MM1.S cells), in assay [7] (NCI-H929 cells), in assay [7] (RPMI8226 cells) and in assay [7] (U266 cells) was “upregulation” each time. In addition, the p-P44/42 entry in assay [8] (setting [9]) is given as “decreased expression”. In assay [8] (setting [9]), the p-SHP1 result is recorded as “activated”. Further, in assay [8] (setting [9]), the p-SHP2 result is recorded as “activated”. The p-STAT3 entry in assay [8] (setting [9]) is recorded as “activated”. The p-P44/42 expression result in assay [8] (setting [10]) is recorded as “decreasing”. Moreover, the p-SHP1 expression entry in assay [8] (setting [10]) was “increasing”. The p-SHP2 expression result in assay [8] (setting [10]) was “increasing”.

The values above are taken from patent US20180344768A1, “NK CELL-BASED THERAPY” (Onkimmune Limited, priority 2016, published 2018).
